In PubChem BioAssay AID248 (DTP/NCI, 2004):
Several values for one entry are separate records, joined by “and”; a condition that tells them apart may be missing. Equal entries are not always repeated. Inconclusive results and toxic doses are left out. Cut-off read from the data, not from the text of the source: active = T/C of 150% or more; inactive = T/C below 125%.

System: L1210 leukemia ip in BDF1 mice, survival T/C
Experiment: NCI In Vivo Anticancer Drug Screen. Data for tumor model L1210 Leukemia (intraperitoneal) in B6D2F1 (BDF1) mice
Conditions: endpoint: mean survival time, higher = longer survival
Method in brief: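 Mice bearing the transplanted tumor received compound or vehicle. Survival of the treated group was divided by that of the vehicle-treated control group to give the ratio.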

[1] = dose: 100.0 mg/kg/injection, schedule: Q01DX009 (ip), vehicle: Klucel (hydroxypropylcellulose) (HPC)
[2] = dose: 100.0 mg/kg/injection, schedule: Q04DX003 (ip), vehicle: Klucel (hydroxypropylcellulose) (HPC)
[3] = dose: 200.0 mg/kg/injection, schedule: Q01DX009 (ip), vehicle: Klucel (hydroxypropylcellulose) (HPC)
[4] = dose: 200.0 mg/kg/injection, schedule: Q04DX003 (ip), vehicle: Klucel (hydroxypropylcellulose) (HPC)
[5] = dose: 400.0 mg/kg/injection, schedule: Q04DX003 (ip), vehicle: Klucel (hydroxypropylcellulose) (HPC)
[6] = dose: 50.0 mg/kg/injection, schedule: Q04DX003 (ip), vehicle: Klucel (hydroxypropylcellulose) (HPC)
[7] = dose: 100.0 mg/kg/injection, schedule: Q01DX009 (ip), vehicle: saline sonified
[8] = dose: 100.0 mg/kg/injection, schedule: Q01DX001 (ip), vehicle: saline
[9] = dose: 200.0 mg/kg/injection, schedule: Q01DX001 (ip), vehicle: saline
[10] = dose: 25.0 mg/kg/injection, schedule: Q01DX009 (ip), vehicle: saline
[11] = dose: 50.0 mg/kg/injection, schedule: Q01DX009 (ip), vehicle: Klucel (hydroxypropylcellulose) (HPC)
[12] = dose: 50.0 mg/kg/injection, schedule: Q04DX003 (ip), vehicle: saline
[13] = dose: 100.0 mg/kg/injection, schedule: Q04DX002 (ip), vehicle: Klucel (hydroxypropylcellulose) (HPC)
[14] = dose: 50.0 mg/kg/injection, schedule: Q01DX009 (ip), vehicle: saline
[15] = dose: 100.0 mg/kg/injection, schedule: Q01DX009 (ip), vehicle: saline
[16] = dose: 100.0 mg/kg/injection, schedule: Q04DX003 (ip), vehicle: saline
[17] = dose: 200.0 mg/kg/injection, schedule: Q01DX009 (ip), vehicle: saline
[18] = dose: 400.0 mg/kg/injection, schedule: Q01DX009 (ip), vehicle: saline

Measured: T/C

O=C(O)CSCCc1ccccc1
inactive: [1] 105 % of control | [2] 106 % of control | [3] 94 % of control | [4] 105 % of control | dose: 400.0 mg/kg/injection, schedule: Q01DX009 (ip), vehicle: Klucel (hydroxypropylcellulose) (HPC) 100 % of control | [5] 100 % of control

CC(=O)Oc1cc2c(cc1OC(C)=O)C(=O)CCC=C2
inactive: dose: 25.0 mg/kg/injection, schedule: Q04DX003 (ip), vehicle: Klucel (hydroxypropylcellulose) (HPC) 104 % of control | [6] 106 % of control | [7] 95 % of control | [2] 98 % of control and 115 % of control | dose: 200.0 mg/kg/injection, schedule: Q01DX009 (ip), vehicle: saline sonified 97 % of control | [4] 102 % of control | dose: 400.0 mg/kg/injection, schedule: Q01DX009 (ip), vehicle: saline sonified 99 % of control | [5] 100 % of control

Nc1nc(N)c(N=Nc2ccc(S(=O)(=O)Nc3ccccn3)cc2)c(N)n1
inactive: [8] 101 % of control | [9] 95 % of control

C/C(=N\NC(N)=S)C(C)(C)O
inactive: dose: 100.0 mg/kg/injection, schedule: Q01DX001 (ip), vehicle: carboxymethylcellulose (CMC) 110 % of control | dose: 200.0 mg/kg/injection, schedule: Q01DX001 (ip), vehicle: carboxymethylcellulose (CMC) 108 % of control | dose: 400.0 mg/kg/injection, schedule: Q01DX001 (ip), vehicle: carboxymethylcellulose (CMC) 104 % of control

CCCCCCCCCCCCCCCOc1cccc(OCCCCCCCCCCCCCCC)c1
inactive: dose: 50.0 mg/kg/injection, schedule: Q01DX001 (ip), vehicle: Klucel (hydroxypropylcellulose) (HPC) 92 % of control | dose: 100.0 mg/kg/injection, schedule: Q01DX001 (ip), vehicle: Klucel (hydroxypropylcellulose) (HPC) 92 % of control | dose: 200.0 mg/kg/injection, schedule: Q01DX001 (ip), vehicle: Klucel (hydroxypropylcellulose) (HPC) 92 % of control

CCCCCCCCCCCCN (tested in a mixture with another compound)
inactive: dose: 87.5 mg/kg/injection, schedule: Q01DX001 (ip), vehicle: Klucel (hydroxypropylcellulose) (HPC) 93 % of control

CCCC[P+](c1ccccc1)(c1ccccc1)c1ccccc1
inactive: dose: 6.25 mg/kg/injection, schedule: Q04DX003 (ip), vehicle: saline 107 % of control | dose: 12.5 mg/kg/injection, schedule: Q01DX009 (ip), vehicle: Klucel (hydroxypropylcellulose) (HPC) 114 % of control | dose: 12.5 mg/kg/injection, schedule: Q01DX009 (ip), vehicle: saline 113 % of control | dose: 12.5 mg/kg/injection, schedule: Q04DX003 (ip), vehicle: saline 107 % of control | dose: 25.0 mg/kg/injection, schedule: Q01DX009 (ip), vehicle: Klucel (hydroxypropylcellulose) (HPC) 112 % of control | [10] 115 % of control | dose: 25.0 mg/kg/injection, schedule: Q04DX003 (ip), vehicle: saline 105 % of control | [11] 109 % of control | [12] 104 % of control

CC(C)(C)OC(=O)NC(CC(=O)O)C(=O)O (stereo unspecified)
inactive: dose: 25.0 mg/kg/injection, schedule: Q01DX009 (ip), vehicle: saline with Tween-80 99 % of control | dose: 50.0 mg/kg/injection, schedule: Q01DX009 (ip), vehicle: saline with Tween-80 89 % of control | dose: 100.0 mg/kg/injection, schedule: Q01DX009 (ip), vehicle: saline with Tween-80 101 % of control and 117 % of control | [13] 90 % of control | dose: 200.0 mg/kg/injection, schedule: Q01DX009 (ip), vehicle: saline with Tween-80 96 % of control | dose: 200.0 mg/kg/injection, schedule: Q04DX002 (ip), vehicle: Klucel (hydroxypropylcellulose) (HPC) 101 % of control | dose: 400.0 mg/kg/injection, schedule: Q01DX009 (ip), vehicle: saline with Tween-80 91 % of control | dose: 400.0 mg/kg/injection, schedule: Q04DX002 (ip), vehicle: Klucel (hydroxypropylcellulose) (HPC) 101 % of control

O=C(O)c1ccccc1NC(=O)C(F)(F)F
inactive: dose: 25.0 mg/kg/injection, schedule: Q01DX009 (ip), vehicle: saline sonified 98 % of control | dose: 50.0 mg/kg/injection, schedule: Q01DX009 (ip), vehicle: saline sonified 96 % of control | [7] 93 % of control | [2] 101 % of control

CCCC/C(=N\N=C(N)N)c1ccc(F)cc1
inactive: dose: 15.0 mg/kg/injection, schedule: Q01DX Z (ip), vehicle: methylcellulose (MC) 104 % of control | dose: 15.0 mg/kg/injection, schedule: Q01DX Z (oral), vehicle: methylcellulose (MC) 94 % of control | dose: 30.0 mg/kg/injection, schedule: Q01DX Z (ip), vehicle: methylcellulose (MC) 93 % of control | dose: 30.0 mg/kg/injection, schedule: Q01DX Z (oral), vehicle: methylcellulose (MC) 94 % of control

Oc1cccnc1CN1CCCCC1
inactive: [10] 100 % of control | [14] 91 % of control | [12] 97 % of control | [15] 96 % of control | [16] 97 % of control

CCCCCCCCCCCCCCCCOc1ccc(C=Nc2ccc(C)cc2)cc1
inactive: [2] 103 % of control | [4] 97 % of control | [5] 104 % of control

O=C(O)CCSC(c1ccccc1)(c1ccccc1)c1ccccc1
inactive: [10] 102 % of control | [14] 103 % of control | [15] 96 % of control | [17] 100 % of control | dose: 300.0 mg/kg/injection, schedule: Q01DX009 (ip), vehicle: saline 96 % of control | [18] 96 % of control

NC(Cc1cnc(N=Nc2ccc(N=Nc3ncc(CC(N)C(=O)O)[nH]3)cc2)[nH]1)C(=O)O (stereo unspecified)
inactive: [11] 89 % of control | [1] 89 % of control

CC(CC(CCC(CC(C)CC(C)(C)C)N(C)C)N(C)C)CC(C)(C)C (stereo unspecified)
inactive: [11] 90 % of control | dose: 50.0 mg/kg/injection, schedule: Q04DX002 (ip), vehicle: Klucel (hydroxypropylcellulose) (HPC) 93 % of control | [1] 96 % of control | [13] 87 % of control | [3] 101 % of control

CC(=O)c1ccccc1-n1c(C)ccc1C
inactive: [15] 95 % of control | dose: 100.0 mg/kg/injection, schedule: Q04DX003 (ip), vehicle: saline + alcohol 100 % of control | [17] 98 % of control | dose: 200.0 mg/kg/injection, schedule: Q04DX003 (ip), vehicle: saline + alcohol 100 % of control | [18] 98 % of control | dose: 400.0 mg/kg/injection, schedule: Q04DX003 (ip), vehicle: saline + alcohol 108 % of control

O=Cc1cc(Br)c(O)c(Br)c1
inactive: [6] 100 % of control | [2] 101 % of control | [4] 100 % of control

CSCCC(O)C(=O)O (stereo unspecified)
inactive: [8] 101 % of control | [9] 95 % of control | dose: 400.0 mg/kg/injection, schedule: Q01DX001 (ip), vehicle: saline 101 % of control

O=C(NO)Nc1nc(Cl)c(Cl)nc1Cl
inactive: dose: 25.0 mg/kg/injection, schedule: Q01DX009 (ip), vehicle: water 94 % of control | dose: 50.0 mg/kg/injection, schedule: Q01DX009 (ip), vehicle: water 100 % of control

O=C(Nc1ccccc1)C1C2CC3OC(=O)C1C3C2 (stereo unspecified)
inactive: [16] 104 % of control and 102 % of control | dose: 200.0 mg/kg/injection, schedule: Q04DX003 (ip), vehicle: saline 95 % of control and 92 % of control | dose: 400.0 mg/kg/injection, schedule: Q04DX003 (ip), vehicle: saline 98 % of control and 104 % of control
